Data published in ChEMBL document CHEMBL5726667, “Substituted pyrrolo[2,3-b]pyrazines and substituted pyrazolo[3,4-b]pyridines as ITK and JAK kinase inhibitors” (2017).

Experiments:
[1] = molecular target: T1, Tyrosine-protein kinase ITK/TSK (Homo sapiens, UniProt Q08881); test: In Vitro Inhibition Assay: ITK and JAK3 Kinase assay procedures:Enzyme was incubated with substrate peptide in reaction buffer in the presence and absence of test compounds or Staurosporine. All additions were done on ice, followed by the addition of ATP mix. Wells were uniformly mixed using an Eppendorff plate shaker and incubated at 30° C. for 20 min, and stopped by the addition of 5 μL of 3% …
T1 sequence (Q08881 whole entry): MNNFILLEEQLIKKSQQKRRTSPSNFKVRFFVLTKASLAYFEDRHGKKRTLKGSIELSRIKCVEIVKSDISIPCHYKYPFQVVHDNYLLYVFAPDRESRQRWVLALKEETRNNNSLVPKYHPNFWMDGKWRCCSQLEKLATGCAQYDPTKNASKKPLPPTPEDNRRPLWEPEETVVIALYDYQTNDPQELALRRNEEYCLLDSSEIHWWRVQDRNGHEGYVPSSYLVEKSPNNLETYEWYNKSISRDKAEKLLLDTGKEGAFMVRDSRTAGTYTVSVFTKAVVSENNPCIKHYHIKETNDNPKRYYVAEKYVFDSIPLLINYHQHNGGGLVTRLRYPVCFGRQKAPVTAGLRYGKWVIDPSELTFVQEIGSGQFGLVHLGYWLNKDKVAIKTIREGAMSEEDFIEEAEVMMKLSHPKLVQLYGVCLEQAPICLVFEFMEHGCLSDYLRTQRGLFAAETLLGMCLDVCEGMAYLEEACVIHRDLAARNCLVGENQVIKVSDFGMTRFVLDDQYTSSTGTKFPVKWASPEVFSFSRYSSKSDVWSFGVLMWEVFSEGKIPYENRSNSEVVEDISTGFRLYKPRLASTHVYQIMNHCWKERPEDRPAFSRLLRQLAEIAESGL
Description: (§1) All additions were done on ice, followed by the addition of ATP mix. Wells were uniformly mixed using an Eppendorff plate shaker and incubated at 30° C. for 20 min, and stopped by the addition of 5 μL of 3% phosphoric acid. Volume was increased to 100 μL by adding 0.8% phosphoric acid which was then transferred to PC filter mats (Millipore), pre-equilibrated with 70% ethanol and water. Plates were washed thrice with 100 μL 0.8% phosphoric acid and dried for an hour at 60° C. 100 μL scintillation fluid was added into each well and reading taken in Perkin Elmer TOPCOUNT beta counter.

[2] = molecular target: T2, Tyrosine-protein kinase JAK3 (Homo sapiens, UniProt P52333); test: as above
T2 sequence (P52333 whole entry): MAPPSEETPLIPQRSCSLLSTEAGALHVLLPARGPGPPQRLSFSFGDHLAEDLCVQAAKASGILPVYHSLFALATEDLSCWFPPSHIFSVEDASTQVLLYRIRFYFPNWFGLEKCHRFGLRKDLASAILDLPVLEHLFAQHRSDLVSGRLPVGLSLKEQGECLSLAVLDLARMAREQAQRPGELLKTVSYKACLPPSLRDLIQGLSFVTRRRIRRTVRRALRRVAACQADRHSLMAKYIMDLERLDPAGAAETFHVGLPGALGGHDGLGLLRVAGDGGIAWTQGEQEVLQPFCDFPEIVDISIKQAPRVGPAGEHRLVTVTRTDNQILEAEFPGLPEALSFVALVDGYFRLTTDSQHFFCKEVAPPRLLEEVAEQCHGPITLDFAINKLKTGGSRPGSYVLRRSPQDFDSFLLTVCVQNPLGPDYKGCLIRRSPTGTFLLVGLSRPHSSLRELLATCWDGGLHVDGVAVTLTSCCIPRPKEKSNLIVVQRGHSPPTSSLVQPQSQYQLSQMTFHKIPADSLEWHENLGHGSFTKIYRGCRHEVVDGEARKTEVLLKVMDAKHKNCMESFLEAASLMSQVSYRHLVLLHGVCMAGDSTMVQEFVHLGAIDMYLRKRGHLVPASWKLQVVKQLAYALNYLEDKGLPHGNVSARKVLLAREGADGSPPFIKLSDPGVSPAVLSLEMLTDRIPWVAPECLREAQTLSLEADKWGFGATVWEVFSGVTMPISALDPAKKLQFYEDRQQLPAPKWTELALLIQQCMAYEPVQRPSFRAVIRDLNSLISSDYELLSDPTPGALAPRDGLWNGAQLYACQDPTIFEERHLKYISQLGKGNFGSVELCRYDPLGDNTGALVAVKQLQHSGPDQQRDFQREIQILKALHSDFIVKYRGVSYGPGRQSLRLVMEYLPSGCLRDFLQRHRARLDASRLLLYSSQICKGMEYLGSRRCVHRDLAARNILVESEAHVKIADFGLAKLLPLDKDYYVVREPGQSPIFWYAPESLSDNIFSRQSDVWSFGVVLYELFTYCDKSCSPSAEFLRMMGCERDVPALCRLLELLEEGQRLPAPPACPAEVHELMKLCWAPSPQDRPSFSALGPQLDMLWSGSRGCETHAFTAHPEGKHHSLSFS
Description: as §1

| SMILES | IC50 [1] | IC50 [2] |
| --- | --- | --- |
| C=CC(=O)Nc1cccc(-c2cnc3c(c2)CC(=O)N3)c1 | > 100 nM | > 100 nM |
| CC/C=C/C(=O)Nc1cccc(-c2cnc3[nH]nc(C)c3c2)c1 | > 100 nM | > 100 nM |
| C=CC(=O)Nc1cccc(-c2cnc3[nH]ccc3c2)c1 | > 1000 nM | > 1000 nM |
| Cc1c[nH]c2ncc(-c3cccc(NC(=O)/C=C/N(C)C)c3)cc12 | > 1000 nM | > 1000 nM |
| CC/C=C/C(=O)Nc1cc(-c2cnc3[nH]cc(C)c3c2)ccc1Cl | > 100 nM | > 100 nM |
| Cc1c[nH]c2ncc(-c3ccc(Cl)c(NC(=O)/C=C/N(C)C)c3)cc12 | > 1000 nM | > 1000 nM |
| C=CC(=O)Nc1cccc(-c2cnc3[nH]cc(-c4cc5ccc(Cl)cc5[nH]4)c3n2)c1 | > 100 nM | > 100 nM |
| CC/C=C/C(=O)Nc1cccc(-c2cnc3[nH]cc(C)c3c2)c1 | > 1000 nM | > 1000 nM |
| C=CC(=O)Nc1cccc(-c2cnc3[nH]cc(-c4cc(F)cc(F)c4OC)c3n2)c1 | > 100 nM | > 100 nM |
| Cc1c[nH]c2ncc(Nc3cccc(CC#N)c3)cc12 | > 1000 nM | > 1000 nM |
| C=CC(=O)Nc1cccc(-c2cnc3[nH]ccc3n2)c1 | > 1000 nM | > 1000 nM |
| COc1c(F)cc(F)cc1-c1c[nH]c2ncc(-c3cc(NC(=O)/C(C)=C/C(C)(C)C)ccc3F)cc12 | < 100 nM | < 100 nM |
